Experimental data published in patent US8957075B2, “O-GlcNAc transferase inhibitors and uses thereof” (priority 2009, dated 2015).

Target: T1, sOGT (Homo sapiens (Human), UniProt O15294)
Assay: Fluorescence polarization screen of quinolinesulfonamide library for OGT inhibition (displacement of fluorescein-linked UDP-GlcNAc analog)
Type: binding
Settings: rough Ki values from fluorescence polarization results and Kd of the probe; 1-2 μM sOGT, 50 nM probe
Procedure: Compound libraries of the 4 concentrations in duplicated were then transferred to the assay plates using a 100 nL pin array, resulting in a final compound concentration of 25 μg/mL or ˜70 μM at the highest of the four concentrations, assuming an average compound MW of 350. Using a Perkin Elmer Envision® microplate reader, the sample was excited at 480 nm in the vertical plane, and simultaneous emission intensity (535 nm) of the vertical and horizontal polarization planes was measured. The polarization was calculated using the following equation: eq4: mP=1000*(V−G*H)/(V+G*H) where: mP=millipolarization units, V=intensity of vertically polarized emission (RFU), H=intensity of horizontally polarized emission (RFU), and G=gain.

T1 sequence (O15294 382-1046, species assumed): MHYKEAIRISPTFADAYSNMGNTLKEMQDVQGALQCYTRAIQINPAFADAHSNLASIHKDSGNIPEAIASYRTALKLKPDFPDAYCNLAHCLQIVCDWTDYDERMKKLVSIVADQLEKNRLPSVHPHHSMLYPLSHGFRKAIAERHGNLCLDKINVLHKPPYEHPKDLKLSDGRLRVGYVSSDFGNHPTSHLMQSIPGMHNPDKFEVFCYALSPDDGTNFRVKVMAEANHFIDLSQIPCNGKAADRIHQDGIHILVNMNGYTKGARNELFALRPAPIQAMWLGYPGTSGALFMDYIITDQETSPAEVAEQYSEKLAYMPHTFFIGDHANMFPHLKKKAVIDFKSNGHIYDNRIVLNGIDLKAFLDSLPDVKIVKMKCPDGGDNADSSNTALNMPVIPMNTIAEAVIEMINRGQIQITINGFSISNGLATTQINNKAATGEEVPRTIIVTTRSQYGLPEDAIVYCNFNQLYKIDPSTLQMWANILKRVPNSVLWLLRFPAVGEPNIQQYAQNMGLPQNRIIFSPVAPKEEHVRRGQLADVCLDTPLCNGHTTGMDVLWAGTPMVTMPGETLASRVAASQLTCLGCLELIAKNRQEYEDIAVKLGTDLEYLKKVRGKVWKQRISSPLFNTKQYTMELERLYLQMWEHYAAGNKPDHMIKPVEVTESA

In order of falling Ki:
1. O=C1CCc2cc(S(=O)(=O)NC(C(=O)NCc3ccccc3)c3ccccc3)ccc2N1 (stereo not shown)  125 µM
2. CCc1cccc(C)c1NC(=O)C(NS(=O)(=O)c1ccc2c(c1)CCC(=O)N2)c1ccccc1 (stereo not shown)  97 µM
3. CN(CC(=O)Nc1nc2ccc(Cl)cc2s1)S(=O)(=O)c1ccc2[nH]c(=O)ccc2c1  60 µM
4. Cc1ccc(NC(=O)C(NS(=O)(=O)c2ccc3c(c2)CCC(=O)N3)c2ccccc2)c(Br)c1 (stereo not shown)  52 µM
5. COc1cc2c(cc1OC)C(C)N(S(=O)(=O)c1ccc3[nH]c(=O)ccc3c1)CC2 (stereo not shown)  50 µM
6. Cc1cccc(C)c1NC(=O)C(NS(=O)(=O)c1ccc2c(c1)CCC(=O)N2)c1ccccc1 (stereo not shown)  37 µM
7. CCN(CC)C(=O)C(NS(=O)(=O)c1ccc2c(c1)CCC(=O)N2)c1ccccc1 (stereo not shown)  21 µM
8. O=C1CCc2cc(S(=O)(=O)NC(C(=O)N3CCN(C4CCCCC4)CC3)c3ccccc3)ccc2N1 (stereo not shown)  20 µM
9. O=C(O)CC(NS(=O)(=O)c1ccc2c(c1)CCC(=O)N2)c1cccc(Cl)c1 (stereo not shown)  15 µM
10. CN(Cc1ccco1)C(=O)C(Cc1ccccc1)NS(=O)(=O)c1ccc2c(c1)CCC(=O)N2 (stereo not shown)  13 µM
11. O=C1CCc2cc(S(=O)(=O)NC(C(=O)N3CCN(C(=O)c4ccco4)CC3)c3ccccc3)ccc2N1 (stereo not shown)  11 µM
12. Cc1ccc(N2CCN(C(=O)C(NS(=O)(=O)c3ccc4c(c3)CCC(=O)N4)c3ccccc3)CC2)cc1 (stereo not shown)  9 µM
13. Cc1cccc(N(C)C(=O)C(NS(=O)(=O)c2ccc3c(c2)CCC(=O)N3)c2ccccc2)c1 (stereo not shown)  7.4 µM
14. COc1ccc(NS(=O)(=O)c2ccc3[nH]c(=O)ccc3c2)cc1OC  7.2 µM
15. CC(C)N(Cc1ccccc1)C(=O)C(NS(=O)(=O)c1ccc2c(c1)CCC(=O)N2)c1ccccc1 (stereo not shown) [drawing 98]  7 µM
16. O=C1CCc2cc(S(=O)(=O)NC(C(=O)NCc3ccc(Cl)cc3)c3ccccc3)ccc2N1 (stereo not shown)  6.6 µM
17. COc1cccc(N2CCN(C(=O)C(NS(=O)(=O)c3ccc4c(c3)CCC(=O)N4)c3ccccc3)CC2)c1 (stereo not shown)  6.3 µM
18. CC(C)N(Cc1ccccc1)C(=O)C(NS(=O)(=O)c1ccc2c(c1)CCC(=O)N2)c1ccccc1 (stereo not shown) [drawing 86]  5.7 µM
19. Cc1cc(C)c(NC(=O)C(NS(=O)(=O)c2ccc3c(c2)CCC(=O)N3)c2ccccc2)c(C)c1 (stereo not shown)  5.6 µM
20. CCOc1ccccc1NS(=O)(=O)c1ccc2[nH]c(=O)ccc2c1  4.7 µM
21. O=C1CCc2cc(S(=O)(=O)NC(C(=O)N3CCN(c4ccccn4)CC3)c3ccccc3)ccc2N1 (stereo not shown)  4.2 µM
22. O=C1CCc2cc(S(=O)(=O)NC(C(=O)N(Cc3ccco3)Cc3cccs3)c3ccccc3)ccc2N1 (stereo not shown)  4 µM
23. Cc1ccc(N2CCN(C(=O)C(NS(=O)(=O)c3ccc4c(c3)CCC(=O)N4)c3ccccc3)CC2C)cc1 (stereo not shown)  3.2 µM
24. O=C1CCc2cc(S(=O)(=O)NC(C(=O)N3CCC(Cc4ccccc4)CC3)c3ccccc3)ccc2N1 (stereo not shown)  2 µM
25. CC(c1cccs1)N(Cc1ccco1)C(=O)C(NS(=O)(=O)c1ccc2c(c1)CCC(=O)N2)c1ccccc1 (stereo not shown)  1.6 µM
26. O=C(C(NS(=O)(=O)c1ccc2[nH]c(=O)ccc2c1)c1ccccc1)N(Cc1ccco1)Cc1cccs1 (stereo not shown) [drawing 100]  0.4 µM

System: HEK293 cells
Assay: Glucosamine-induced cellular-wide O-GlcNAcylation changes in HEK cells (western blot, CTD110.6 antibody)
Type: cell-based
Settings: 12.5 μM compound, 4 mM glucosamine, 16 hours
Procedure: The efficacy of the inhibitor in cell culture was evaluated by adding compound N08 to HEK293 cells.HEK293 cells were grown in 6 well plates using low glucose (5 mM) DMEM with 10% FBS as the media. […] After mixing the compounds the media was removed from the cultured cells and the inhibitor-media solutions was added to the cells. After cells were incubated with the inhibitors for 16 hours (overnight), the cells were rinsed with PBS, removed using cell scrapers, transferred to 1.5 ml microcentrifuge tubes, pelleted by centrifugation, and lysed by resuspending in 100 μl RIPA buffer with protease and phosphatase inhibitor cocktails (SIGMA). After incubating on ice the debris were pelleted down, and the supernatant was collected as whole cell lysate. Total protein concentration of each sample was determined by Bradford Assay in order to normalize levels of protein loaded onto a gel. Then 2×SDS-PAGE sample buffer was added to each sample, they were boiled for 10 minutes, and loaded onto a denaturing polyacrylamide gel (4-20% gradient), transferred to nitrocellulose membrane, blocked with 1% BSA for 1 hour, and probed with the monoclonal O-GlcNAc antibody, CTD110.6 (Covance), incubated at a 1:5000 dilution in 1% BSA overnight at 4° C., followed by addition of anti-mouse HRP secondary antibody. Pierce SuperSignal West Pico Chemiluminescent substrate was added to perform the western blot.

For O=C(C(NS(=O)(=O)c1ccc2[nH]c(=O)ccc2c1)c1ccccc1)N(Cc1ccco1)Cc1cccs1 (stereo not shown) [Example 3, N-(furan-2-ylmethyl)-2-(2-oxo-1,2-dihydroquinoline-6-sulfonamido)-2-phenyl-N-(thiophen-2-ylmethyl)acetamide], the “Effect on glucosamine-induced cellular-wide O-GlcNAcylation” value was “reduces glucosamine-induced cellular-wide O-GlcNAcylation changes to normal levels”.

Target: T1, sOGT
Assay: Secondary assay: transfer of UDP-14C-GlcNAc to casein kinase II derived peptide by sOGT
Type: biochemical
Settings: 500 μM peptide, 6.25 μM UDP-14C-GlcNAc, ~20-40 nM sOGT; read-out: IC50 (OGT inhibition)
Procedure: Hits were examined in a secondary assay involving the transfer of UDP-^14C-GlcNAc to a peptide derived from casein kinase II, which contains a known OGT glycosylation site, as described by Hart and co-workers (see manuscript, reference 4). Three lysines and a tyrosine were added to the N-terminus of this peptide substrate ([sequence]) to allow capture on phosphocellulose discs and UV detection, respectively. […] Reactions were spotted on Whatman P81 phosphocellulose discs, washed three times for five minutes in 1% phosphoric acid, and counted by liquid scintillation counting. IC50s curves were determined from the counts of the reactions and IC50s were determined.

In the case of O=C(C(NS(=O)(=O)c1ccc2[nH]c(=O)ccc2c1)c1ccccc1)N(Cc1ccco1)Cc1cccs1 (stereo not shown) [Example 3, N-(furan-2-ylmethyl)-2-(2-oxo-1,2-dihydroquinoline-6-sulfonamido)-2-phenyl-N-(thiophen-2-ylmethyl)acetamide], the IC50 is reported as 0.39 µM.
